Our source for the CC50 and selectivity ratio values is ChEMBL document CHEMBL4038286, “Synthesis of camphecene derivatives using click chemistry methodology and study of their antiviral activity” (Bioorg Med Chem Lett, 2017).

Molecules are shown by their SMILES.

Data set [1] can be described thus: Cytotoxicity against MDCK cells assessed as cell death by MTT assay. It is filed as cell-based, Canis lupus familiaris. As to conditions: dog, read-out: CTD50. On the technique in general: Tetrazolium assays rely on reduction of a dye to a coloured formazan, in cell work by metabolically active cells.
The nature of data set [2]: Selectivity index, ratio of CTD50 for MDCK cells to ED50 for Influenza A virus (A/Puerto Rico/8/34(H1N1)). It is filed as toxicity. To be noted: dog, read-out: Selectivity Index.

On to `CCOP(=O)(CCCCn1cc(COCC/N=C2\C[C@H]3CC[C@]2(C)C3(C)C)nn1)OCC`, for which the CC50 in data set [1] was greater than 641 µM. Also, the selectivity ratio in data set [2] is greater than 2.

Take `CNCc1cn(CC/N=C2\C[C@H]3CC[C@]2(C)C3(C)C)nn1`: the CC50 in data set [1] is 195 µM. Moreover, in data set [2], the selectivity ratio is less than 2.

`CC1(C)[C@@H]2CC[C@@]1(C)/C(=N/CCOCc1cn(CCO)nn1)C2`: the CC50 in data set [1] was greater than 938 µM. Besides, the selectivity ratio in data set [2] was greater than 19.

`CC(N)[C@@H]1C[C@H]2CC[C@]1(C)C2` (stereo not given in full): the CC50 in data set [1] amounted to 1110 µM. In data set [2], the selectivity ratio was 6.

Turning to `CC(C)(O)Cc1cn(CC/N=C2\C[C@H]3CC[C@]2(C)C3(C)C)nn1`, the CC50 in data set [1] is greater than 987 µM. In addition, in data set [2], the selectivity ratio is greater than 31.

Turning to `CC1(C)[C@@H]2CC[C@@]1(C)/C(=N/CCOCc1cn(-c3ccccc3)nn1)C2`, the CC50 in data set [1] stood at 138 µM. For the same compound, the selectivity ratio in data set [2] was 2.

For the compound `CCOC(=O)C(C)(Cc1cn(CC/N=C2\C[C@H]3CC[C@]2(C)C3(C)C)nn1)P(=O)(OCC)OCC` (stereo not given in full), in data set [1], the CC50 was greater than 555 µM. For the same compound, the selectivity ratio in data set [2] came out at 2.

For the compound `C#CCOCC/N=C1\C[C@H]2CC[C@]1(C)C2(C)C`, the CC50 in data set [1] amounted to 971 µM. Besides, in data set [2], the selectivity ratio came to 2.

As for `CC1(C)[C@@H]2CC[C@@]1(C)/C(=N/CCn1cc([Si](C)(C)C)nn1)C2`, in data set [1], the CC50 was determined as 32 µM. In addition, in data set [2], the selectivity ratio is less than 1.

In the case of `CC1(C)[C@@H]2CC[C@@]1(C)/C(=N\CCOCc1cn(CC/N=C3\C[C@H]4CC[C@]3(C)C4(C)C)nn1)C2`, the CC50 in data set [1] was 117 µM. Besides, the selectivity ratio in data set [2] was 1.

`CCCCc1cn(CC/N=C2\C[C@H]3CC[C@]2(C)C3(C)C)nn1`: the CC50 in data set [1] was found to be 303 µM. Also, the selectivity ratio in data set [2] is 5.

Turning to `CC1(C)[C@@H]2CC[C@@]1(C)/C(=N/CCn1cc(CCO)nn1)C2`, the CC50 in data set [1] was greater than 1030 µM. Besides, in data set [2], the selectivity ratio was greater than 19.

As for `CC(C)(C)OC(=O)Cn1cc(COCC/N=C2\C[C@H]3CC[C@]2(C)C3(C)C)nn1`, in data set [1], the CC50 amounted to 204 µM. Besides, the selectivity ratio in data set [2] was found to be 8.

As for `COCCNCCc1cn(CC/N=C2\C[C@H]3CC[C@]2(C)C3(C)C)nn1`, the CC50 in data set [1] amounted to 865 µM. Besides, in data set [2], the selectivity ratio amounted to 34.

Regarding `CC1(C)[C@@H]2CC[C@@]1(C)/C(=N/CCn1cc(CCN3CCOCC3)nn1)C2`, in data set [1], the CC50 was greater than 836 µM. The selectivity ratio in data set [2] was greater than 18.

Take `CCOP(=O)(OCC)C(Cc1cn(CC/N=C2\C[C@H]3CC[C@]2(C)C3(C)C)nn1)P(=O)(OCC)OCC`: the CC50 in data set [1] is 92 µM. Moreover, the selectivity ratio in data set [2] was determined as 2.

Turning to `CC1(C)[C@@H]2CC[C@@]1(C)/C(=N/CCN=[N+]=[N-])C2`, in data set [1], the CC50 was greater than 1360 µM. The selectivity ratio in data set [2] was greater than 3.

As for `CC1(C)[C@@H]2CC[C@@]1(C)/C(=N/CCn1cc(CO)nn1)C2`, the CC50 in data set [1] was greater than 1090 µM. Moreover, the selectivity ratio in data set [2] was found to be 2.

With `NC12CC3CC(CC(C3)C1)C2` [AMANTADINE], in data set [1], the CC50 came to 266 µM. Also, in data set [2], the selectivity ratio is 4.

With `CC(N)C12CC3CC(CC(C3)C1)C2` (stereo not given) [RIMANTADINE], the CC50 in data set [1] came to 344 µM. Moreover, the selectivity ratio in data set [2] is 5.
